From ChEMBL document CHEMBL4257523, “Chemical probes of Skp2-mediated p27 ubiquitylation and degradation” (Medchemcomm, 2018)
pEC50, pIC50: −log10 of the molar value.

What was measured:
[1] = test system: HeLa; test: Antiproliferative activity against human HeLa cells; assay type: functional, cell-based
[2] = Antiproliferative activity against mouse tsFT210 cells; assay type: functional, cell-based
[3] = test system: NIH3T3; test: Antiproliferative activity against mouse NIH/3T3 cells; assay type: functional, cell-based
[4] = test system: RPMI-8226; test: Antiproliferative activity against human RPMI8226 cells; assay type: functional, cell-based
[5] = test system: U-266; test: Antiproliferative activity against human U266 cells; assay type: functional, cell-based
[6] = test system: MM1.S; test: Antiproliferative activity against human MM1S cells; assay type: functional, cell-based
[7] = Antiproliferative activity against human ANBL-6 cells; assay type: functional, cell-based
[8] = Antiproliferative activity against human RPMI8226/LR5 cells; assay type: functional, cell-based; conditions: RPMI-8226
[9] = test system: RPMI-8226; test: Antiproliferative activity against doxorubicin-resistant human RPMI8226 cells; assay type: functional, cell-based
[10] = Antiproliferative activity against human U266/LR6 cells; assay type: functional, cell-based; conditions: U-266
[11] = Antiproliferative activity against human MM1R cells; assay type: functional, cell-based; conditions: MM.1R
[12] = Antiproliferative activity against human ANBL6/B7R cells; assay type: functional, cell-based; conditions: ANBL-6
[13] = test system: S-phase kinase-associated protein 1/S-phase kinase-associated protein 2 (Homo sapiens); test: Inhibition of SKP1/SKP2 protein-protein interaction in human MM1S cells assessed as reduction in p27 ubiquitylation at 10 uM after 16 hrs by PAGE analysis relative to control
[14] = test system: S-phase kinase-associated protein 1/S-phase kinase-associated protein 2 (Homo sapiens); test: Inhibition of SKP1/SKP2 protein-protein interaction in human MM1S cells assessed as reduction in p27 ubiquitylation at 20 uM after 16 hrs by PAGE analysis relative to control
[15] = test system: S-phase kinase-associated protein 1/S-phase kinase-associated protein 2 (Homo sapiens); test: Inhibition of SKP1/SKP2 protein-protein interaction in human MM1S cells assessed as reduction in p27 ubiquitylation at 25 uM after 16 hrs by PAGE analysis relative to control
[16] = test system: JeKo-1; test: Antiproliferative activity against human JeKo1 cells; assay type: functional, cell-based
[17] = Antiproliferative activity against human ECC1 cells; assay type: functional, cell-based; conditions: ECC-1
[18] = biological target: T1, Cyclin-dependent kinases regulatory subunit 1/S-phase kinase-associated protein 2 (Homo sapiens, UniProt P61024+Q13309); test: Inhibition of N-terminal fluorescent monomeric Azami Green-tagged SKP2 (unknown origin)/CKS1 (unknown origin) expressed in Escherichia coli DH10 protein-protein interaction assessed as reduction in p27 ubiquitylation at 0.4 to 3.2 uM relative to control
Target sequence in this assay (P61024 2-79 limits assumed): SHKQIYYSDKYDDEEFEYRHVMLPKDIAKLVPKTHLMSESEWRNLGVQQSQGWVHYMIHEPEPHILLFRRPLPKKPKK
Target sequence in this assay (Q13309 whole entry partner): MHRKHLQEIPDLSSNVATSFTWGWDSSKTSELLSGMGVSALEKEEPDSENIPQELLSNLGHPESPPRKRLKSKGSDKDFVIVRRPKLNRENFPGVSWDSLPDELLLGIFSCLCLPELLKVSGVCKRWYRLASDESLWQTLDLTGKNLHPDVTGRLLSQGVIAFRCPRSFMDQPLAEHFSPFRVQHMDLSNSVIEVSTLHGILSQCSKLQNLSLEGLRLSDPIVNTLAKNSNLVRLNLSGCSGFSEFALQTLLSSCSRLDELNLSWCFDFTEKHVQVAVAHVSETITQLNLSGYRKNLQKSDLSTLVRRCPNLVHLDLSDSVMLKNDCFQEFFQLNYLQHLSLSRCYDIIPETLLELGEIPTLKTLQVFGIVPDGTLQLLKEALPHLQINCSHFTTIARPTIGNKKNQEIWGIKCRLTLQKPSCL

[19] = biological target: T1, Cyclin-dependent kinases regulatory subunit 1/S-phase kinase-associated protein 2; test: Inhibition of GST-tagged SKP2 (unknown origin)/His6-tagged CKS1 (unknown origin) expressed in Escherichia coli protein-protein interaction after 1 hr by Alpha screen assay
Target sequence in this assay (P61024 whole entry): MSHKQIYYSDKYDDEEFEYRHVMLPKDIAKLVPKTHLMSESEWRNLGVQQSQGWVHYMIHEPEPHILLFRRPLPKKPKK
Target sequence in this assay (Q13309 whole entry): as the sequence (Q13309 whole entry partner) above

Which results are given for CN(C)c1ccc(C(=C2C=CC(=[N+](C)C)C=C2)c2ccc(N(C)C)cc2)cc1 [GENTIAN VIOLET]?
pIC50 [1]: 6.40; pIC50 [2]: 6.22; pIC50 [3]: 5.28

With CN(C)c1ccc(CNCCC(Cc2ccccc2)C2CCOC(C)(C)C2)cc1 (configuration not stated) as the molecule, how does the pIC50 [4] read?
The pIC50 was 5.10.

And the pIC50 [5]?
Its pIC50 is 5.38.

And the pIC50 [6]?
Its pIC50 is 5.27.

What about the pIC50 [7] of the same molecule?
Its pIC50 is 5.00.

And the pIC50 [8]?
The pIC50 was 5.20.

And the pIC50 [9]?
The pIC50 was 5.07.

And the pIC50 [10]?
The pIC50 was 5.37.

What about the pIC50 [11] of the same molecule?
Its pIC50 is 5.27.

And the pIC50 [12]?
Its pIC50 is 5.10.

What about the inhibition [13] of the same molecule?
The inhibition was 8%.

And the inhibition [14]?
Its inhibition is 44%.

What about the inhibition [15] of the same molecule?
Its inhibition is 51%.

What does the source list for COC(=O)C1=C(C)N(c2ccc(Br)cc2)C(=O)/C1=C\c1ccccc1O?
pEC50 [16]: 5.03; pEC50 [17]: 4.84

What does the source list for C=C(C)C(=O)O[C@H]1CC(=C)[C@@H]2C[C@H](O)[C@](O)(CCl)[C@@H]2[C@H]2OC(=O)C(=C)[C@@H]21?
pIC50 [1]: 5.49; pIC50 [2]: 5.80; pIC50 [3]: 4.90; inhibition [18]: 70 to 80%

With O=C(OC12CC3CC(CC(C3)C1)C2)c1ccc(NCc2cc(O)ccc2O)cc1 as the molecule, how does the pIC50 [19] read?
The pIC50 was 4.44.
